# Results taken from patent US8293769B2, “CSF-1R inhibitors, compositions, and methods of use” (Novartis AG, priority 2008, dated 2012).
# Assays:
# PDGFRb = target: T1, PDGFRb (Homo sapiens, UniProt P09619); test: PDGFRb kinase in vitro biochemical assay (alphascreen); settings: tested at about 1 μM; read-out: PDGF RK BETA percent inhibition
# T1 construct: The kinase domain of PDGFRβ was assayed in 50 mM Hepes; purchased Invitrogen P3082
# Protocol: (§1) The IC50 values for the inhibition of RTKs were determined in the alphascreen format measuring the inhibition by compound of phosphate transfer to a substrate by the respective enzyme. Briefly, the respective RTK domain purchased as human recombinant protein (cKIT Upstate #14-559, PDGFRb Invitrogen #P3082) were incubated with serial dilutions of compound in the presence of substrate and ATP concentrations within 3 times the Km of the enzyme.
# (§2) The kinase domain of cKIT was assayed in 50 mM Hepes, pH=7.5, 5 mM MgCl2, 10 mM MnCl2, 1 mM DTT, 0.1% BSA with 0.06 uM biotinylated peptide substrate (GGLFDDPSYVNVQNL-NH2) and 15 uM ATP (ATP KM apparent=15 uM). The kinase domain of PDGFRβ was assayed in 50 mM Hepes, pH=7.5, 20 mM MgCl2, 1 mM DTT, 0.1% BSA with 0.1 uM biotinylated peptide substrate (GGLFDDPSYVNVQNL-NH2) and 10 uM ATP (ATP KM apparent=25 uM). Reactions were incubated at room temperature for 3 to 4 hr and stopped with buffer (20 mM EDTA, 0.01% Tween-20 for both PDGFRb and cKIT). Alphascreen PY20 beads were added to the stopped cKIT reactions and PY20 Ab/Protein A Alphascreen beads were added to the PDGFRβ stopped reactions. Both reactions were incubated overnight and read on the Alphascreen reader. The concentration of compound for 50% inhibition (IC50) was calculated employing non-linear regression using XL-Fit data analysis software. As a control compound, staurosporine is run in every assay and a Z′>0.5 is required to validate results.
# [1] = target: T2, cytoplasmic domain of the human CSF-1R (Homo sapiens, UniProt P07333); test: In vitro kinase assay for CSF-1R (AlphaScreen); type: biochemical; settings: tested at about 1 μM; read-out: CSF1RK 1 percent inhibition
# T2 construct: Recombinant protein corresponding to the cytoplasmic domain of the human CSF-1R; purchased Invitrogen Corporation, Carlsbad, Calif; PV3249
# T2 sequence (P07333 539-972 limits assumed): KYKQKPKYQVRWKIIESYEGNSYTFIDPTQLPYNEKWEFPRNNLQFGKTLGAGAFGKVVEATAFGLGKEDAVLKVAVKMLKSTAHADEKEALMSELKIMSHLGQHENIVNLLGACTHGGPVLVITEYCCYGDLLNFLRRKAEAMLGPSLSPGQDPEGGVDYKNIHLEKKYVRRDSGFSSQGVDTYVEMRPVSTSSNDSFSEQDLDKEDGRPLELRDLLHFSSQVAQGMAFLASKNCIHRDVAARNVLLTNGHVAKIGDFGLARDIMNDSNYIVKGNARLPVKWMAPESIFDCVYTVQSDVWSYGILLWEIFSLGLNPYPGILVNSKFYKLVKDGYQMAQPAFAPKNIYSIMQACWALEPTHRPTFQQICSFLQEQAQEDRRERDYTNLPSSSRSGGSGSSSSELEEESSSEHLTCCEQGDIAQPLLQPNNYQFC
# Protocol: The kinase activity of various protein tyrosine kinases can be measured by providing ATP and a suitable peptide or protein tyrosine-containing substrate, and assaying the transfer of phosphate moiety to the tyrosine residue. Recombinant protein corresponding to the cytoplasmic domain of the human CSF-1R was purchased from Invitrogen Corporation, Carlsbad, Calif. U.S.A. (#PV3249). For each assay, test compounds were serially diluted, starting at 25 μM with 3 fold dilutions, in DMSO in 384 well plates then mixed with an appropriate kinase reaction buffer consisting of 50 mM Hepes, 5 mM MgCl2, 10 mM MnCl2, 0.1% BSA, pH 7.5, 1.0 mM dithiothreitol, 0.01% Tween 80 plus 1 μM ATP. Kinase protein and an appropriate biotinylated peptide substrate at 50 nM were added to give a final volume of 20 μL, reactions were incubated for 2 hours at room temperature and stopped by the addition of 10 μL of 45 mM EDTA, 50 mM Hepes pH 7.5. Added to the stopped reaction mix was 30 μL of PT66 Alphascreen beads (Perkin Elmer, Boston, Mass., U.S.A.). The reaction was incubated overnight and read on the Envision (Perkin Elmer). Phosphorylated peptide product was measured with the AlphaScreen system (Perkin Elmer) using acceptor beads coated with anti-phosphotyrosine antibody PT66 and donor beads coated with streptavidin that emit a fluorescent signal at the 520-620 nm emission wave length if in close proximity. The concentration of each compound for 50% inhibition (IC50) was calculated by non-linear regression using XL Fit data analysis software.
# CSF-1R kinase was assayed in 50 mM Hepes pH 7.0, 5 mM MgCl2, 10 mM MnCl2, 1 mM DTT, 1 mg/mL BSA, 1.0 μM ATP, and 0.05 μM biotin-GGGGRPRAATF-NH2 (SEQ ID NO:1) peptide substrate. CSF-1R kinase was added at final concentration of 4 nM.
# cKIT = target: T3, cKIT (Homo sapiens, UniProt P10721); test: cKIT kinase in vitro biochemical assay (alphascreen); settings: tested at about 1 μM; read-out: CKIT percent inhibition
# T3 construct: The kinase domain of cKIT was assayed in 50 mM Hepes; purchased Upstate 14-559
# Protocol: as §1, §2
# T1 sequence (P09619 600-962 limits assumed): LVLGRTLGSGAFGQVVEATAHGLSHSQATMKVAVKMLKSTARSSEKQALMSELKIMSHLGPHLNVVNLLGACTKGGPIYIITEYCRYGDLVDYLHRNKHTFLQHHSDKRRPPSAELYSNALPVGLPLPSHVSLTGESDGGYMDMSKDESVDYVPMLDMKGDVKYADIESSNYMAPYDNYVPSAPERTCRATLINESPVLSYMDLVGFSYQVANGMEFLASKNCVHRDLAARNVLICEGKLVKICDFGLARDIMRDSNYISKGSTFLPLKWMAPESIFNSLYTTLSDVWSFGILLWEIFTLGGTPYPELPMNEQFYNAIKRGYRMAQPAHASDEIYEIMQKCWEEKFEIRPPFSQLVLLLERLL
# T3 sequence (P10721 589-937 limits assumed): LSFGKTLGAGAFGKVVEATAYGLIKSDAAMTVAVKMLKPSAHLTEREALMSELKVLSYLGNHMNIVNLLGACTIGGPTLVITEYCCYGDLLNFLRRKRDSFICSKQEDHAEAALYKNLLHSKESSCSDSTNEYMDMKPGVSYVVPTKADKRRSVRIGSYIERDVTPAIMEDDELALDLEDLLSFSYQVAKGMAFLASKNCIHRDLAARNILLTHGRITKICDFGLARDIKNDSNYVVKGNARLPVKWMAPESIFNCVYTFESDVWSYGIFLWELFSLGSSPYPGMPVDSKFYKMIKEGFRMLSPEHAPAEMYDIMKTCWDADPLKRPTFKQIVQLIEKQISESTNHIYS
Structure (SMILES),inhibition at 1 µM (PDGFRb) [%],inhibition at 1 µM [1] [%],inhibition at 1 µM (cKIT) [%]
"Clc1cc(Oc2ccc3nc(NCC4CCCCC4)sc3c2)ncn1 [Compound 2, 6-(6-chloropyrimidin-4-yloxy)-N-(cyclohexylmethyl)benzo[d]thiazol-2-amine]",6,78,11
"CC(=O)NCCNc1cc(Oc2ccc3nc(NCC4CCCCC4)sc3c2)nc(N)n1 [Compound 14, N-(2-(2-amino-6-(2-(cyclohexyl-methylamino)benzo[d]thiazol-6-yloxy)pyrimidin-4-ylamino)ethyl)acetamide]",0,26,23
O[C@@H]1CCCC[C@H]1Nc1nc2ccc(Oc3cncc(-c4ccccn4)c3)cc2s1 [Compound 67],36,100,94
"Nc1ccc(Oc2ccc3nc(NCC4CCCCC4)sc3c2)nn1 [Compound 89, 6-(6-aminopyridazin-3-yloxy)-N-(cyclohexylmethyl)benzo[d]thiazol-2-amine]",9,75,46
"Cn1cc(-c2cc(Oc3ccc4nc(N[C@@H]5CCCC[C@H]5O)sc4c3)cnc2Cl)cn1 [Compound 102, (1R,2R)-2-(6-(6-chloro-5-(1-methyl-1H-pyrazol-4-yl)pyridin-3-yloxy)benzo[d]thiazol-2-ylamino)cyclohexanol]",7,86,11
"O[C@@H]1CCCC[C@H]1Nc1nc2ccc(Oc3cncc(-c4cnc5[nH]ccc5c4)c3)cc2s1 [Compound 61, (1R,2R)-2-(6-(5-(1H-pyrrolo[2,3-b]pyridin-5-yl)pyridin-3-yloxy)benzo[d]thiazol-2-ylamino) cyclohexanol]",8,100,84
"O[C@@H]1CCCC[C@H]1Nc1nc2ccc(Oc3cnc(Cl)c(-c4cccnc4)c3)cc2s1 [Compound 105, (1R,2R)-2-(6-(2-chloro-3,3′-bipyridin-5-yloxy)benzo[d]thiazol-2-ylamino) cyclohexanol]",9,43,9
"CNC(=O)c1ccncc1Oc1ccc2nc(NCC3CCCCC3)sc2c1 [Compound 49, 3-(2-(cyclohexylmethylamino)benzo[d]thiazol-6-yloxy)-N-methylisonicotinamide]",6,95,32
"N#Cc1ccc(Oc2ccc3nc(N[C@@H]4CCCC[C@H]4O)sc3c2)cn1 [Compound 88, 5-(2-((1R,2R)-2-hydroxycyclohexylamino)benzo[d]thiazol-6-yloxy)picolinonitrile]",0,32,15
"O[C@@H]1CCCC[C@H]1Nc1nc2ccc(Oc3cncc(-c4cnn(CCN5CCOCC5)c4)c3)cc2s1 [Compound 59, (1R,2R)-2-(6-(5-(1-(2-morpholinoethyl)-1H-pyrazol-4-yl)pyridin-3-yloxy)benzo[d]thiazol-2-ylamino)cyclohexanol]",16,100,78
"Nc1cc(Oc2ccc3nc(NCC4CCCCC4)sc3c2)nc(N)n1 [Compound 3, 6-(2-(cyclohexylmethylamino)benzo [d]thiazol-6-yloxy) pyrimidine-2,4-diamine]",0,19,23
"Cn1cc(-c2cc(Oc3ccc4nc(N[C@@H]5CCCC[C@H]5O)sc4c3)cnc2-c2cnn(C)c2)cn1 [Compound 106, (1R,2R)-2-(6-(5,6-bis(1-methyl-1H-pyrazol-4-yl)pyridin-3-yloxy)benzo[d]thiazol-2-ylamino) cyclohexanol]",18,81,13
"O[C@@H]1CCCC[C@H]1Nc1nc2ccc(Oc3cc(-n4cncn4)ncn3)cc2s1 [Compound 43, (1R,2R)-2-(6-(6-(1H-1,2,4-triazol-1-yl)pyrimidin-4-yloxy)benzo[d]thiazol-2-ylamino)cyclohexanol]",14,57,15
"O[C@@H]1CCCC[C@H]1Nc1nc2ccc(Oc3cnc(-c4cccnc4)c(-c4cccnc4)c3)cc2s1 [Compound 109, (1R,2R)-2-(6-(5,6-bis(pyridin-3-yl)pyridin-3-yloxy)benzo[d]thiazol-2-ylamino)cyclohexanol]",16,48,11
"O=[N+]([O-])c1ccc(Oc2ccc3nc(NCC4CCCCC4)sc3c2)cn1 [Compound 71, N-(cyclohexylmethyl)-6-(6-nitropyridin-3-yloxy)benzo [d]thiazol-2-amine]",1,25,11
"C[C@H](Nc1nc2ccc(Oc3cncc(-n4cncn4)n3)cc2s1)C1CCCCC1 [Compound 40, (S)-6-(6-(1H-1,2,4-triazol-1-yl)pyrazin-2-yloxy)-N-(1-cyclobexylethyl)benzo[d]thiazol-2-amine]",17,68,32
"CNC(=O)c1cncc(Oc2ccc3nc(N[C@@H]4CCCC[C@H]4O)sc3c2)n1 [Compound 52, 6-(2-((1R,2R)-2-hydroxycyclohexylamino)benzo[d]thiazol-6-yloxy)-N-methylpyrazine-2-carboxamide]",12,78,33
"c1cc(Oc2ccc3nc(NCC4CCCCC4)sc3c2)nc(N2CCOCC2)n1 [Compound 15, N-(cyclohexylmethyl)-6-(2-morpholinopyrimidin-4-yloxy)benzo[d]thiazol-2-amine]",16,94,26
"c1nc(Oc2ccc3nc(NCC4CCCCC4)sc3c2)c2sccc2n1 [Compound 38, N-(cyclohexylmethyl)-6-(thieno[3,2-d]pyrimidin-4-yloxy) benzo[d]thiazol-2-amine]",83,100,99
"O[C@@H]1CCCC[C@H]1Nc1nc2ccc(Oc3cnc(Cl)c(Br)c3)cc2s1 [Compound 99, (1R,2R)-2-(6-(5-bromo-6-chloropyridin-3-yloxy)benzo[d]thiazol-2-ylamino)cyclohexanol]",21,83,27
"O[C@@H]1CCCC[C@H]1Nc1nc2ccc(Oc3cncc(-c4cn[nH]c4)c3)cc2s1 [Compound 55, (1R,2R)-2-(6-(5-(1H-pyrazol-4-yl)pyridin-3-yloxy)benzo [d]thiazo-2-ylamino)cyclohexanol]",19,100,84
